This passage reports Emax and EC50 results from patent US8778959B2, “AZA-bridged ring-fused indoles and indolines” (AbbVie Inc., priority 2009, dated 2014).

Structures are written as SMILES. pEC50: −log10 of the molar value. Some results are limits rather than exact numbers.

The subject of the experiment is SK-N-SH human neuroblastoma cells. Kind of experiment: Serum Deprivation/JC-1 Mitochondrial Membrane Potential (MMP) Assay. The experiment is classed as cell-based. The conditions noted are these: Homo sapiens, SK-N-SH, 18 h; for Emax: percent maximal intensity in JC-1 ratio normalized to peak value for 10 μM dimebolin, read-out: JC-1 max %; for pEC50: serum deprivation ~18 hours, JC-1 ratio normalized to peak value for 10 μM dimebolin, single curve fit to mean of n=2-3. The procedure: SK-N-SH human neuroblastoma cells obtained from American Type Culture Collection (Rockville, Md.) were maintained in the log phase of growth in Minimal Essential Media (MEM), 10% heat inactivated fetal calf serum and 100 units/mL antibiotic-antimycotic (AA). Cells were cultured and maintained in a humidified incubator at 37° C. under 5% CO2 and 95% air. Cells were trypsinized (0.25%) and subcultured every 3 days and used from 15-18 passages. All cell culture supplies were obtained from Invitrogen (Carlsbad, Calif.).
SK-N-SH cells were plated 2-3 days in advance at a concentration of 50,000 cells/well onto collagen coated black-walled 96 well plates (Becton-Dickinson, Bedford, Mass.) in a total volume of 200 μL. On day of experimental treatment, the media containing serum was aspirated from each well and rinsed once with MEM/1% AA without serum. The cells then were incubated overnight in 100 μL of MEM/1% AA (no serum) with and without dimebolin or novel chemical entities overnight for ˜18 hours. The following day, JC-1 dye (5,5′,6,6′-tetrachloro-1,1′,3,3′-tetraethylbenzimidazolcarbocyanide) was diluted 1:10 into MEM media according to the JC-1 Mitochondrial Membrane Potential Assay Kit: (Cayman Chemical Company, Ann Arbor, Mich.) and then 10 μL of the JC-1 dye solution was added to each well. The plates were centrifuged for 5 minutes at 400×g at room temperature followed by 35 minute incubation at 37° C. The plates were washed twice with 200 μL of provided Assay Buffer followed an addition of 100 μL of Assay Buffer to each well. The plates were read with an excitation and emission of 560 nm and 595 nM for red fluorescence and with an excitation and emission of […] and 535 nM for green fluorescence to determine the final JC-1 value taking the red to green fluorescence ratio. This assay is based on change in mitochondrial membrane potential (MMP) using this lipophilic cationic dye, JC-1, by monitoring the changes in the ratio of red to green fluorescence as the MMP depolarizes. This change in MMP reflects the health of the cell with healthy, viable cells have a high JC-1 ratio and high MMP whereas apoptotic, unhealthy cells have a low JC-1 ratio or low MMP.
For the ability of compounds to reverse the stress due to serum deprivation and increase the JC-1 ratio, the percent maximal intensity in JC-1 ratio was normalized to that induced by the peak value for 10 μM dimebolin and plotted against the compound concentration to calculate EC50 values and to control for plate-to-plate variability. Concentration-response data were analyzed using GraphPad Prism (San Diego, Calif.); the EC50 values were derived from a single curve fit to the mean data of n=2-3, in duplicates.
All compounds were dissolved in dimethyl sulfoxide at 10 mM stock solutions and tested at a concentration that the dimethyl sulfoxide levels never exceeded 1%.

By pEC50 is commonly meant the negative decadic logarithm of the EC50, by convention in mol/L. Regarding `Cc1ccc(/C=C/c2cccc3c4c([nH]c23)CC2CNC4C2)cn1` (stereo not drawn) [Example 30, 7-[(E)-2-(6-methylpyridin-3-yl)vinyl]-1,2,3,4,5,6-hexahydro-1,4-methanoazepino[4,3-b]indole], the Emax worked out at 118% and the pEC50 was 5.25.
As for `c1cc(-c2ccncc2)c2[nH]c3c(c2c1)C1CCC(C3)N1` (stereo not drawn) [Example 31, 4-(pyridin-4-yl)-5,6,7,8,9,10-hexahydro-7,10-epiminocyclohepta[b]indole], the Emax was found to be 22.3% and the pEC50 was < 4.50.
On the same counts, the results for `c1ccc2ncc(-c3cccc4c5c([nH]c34)CC3CCC5N3)cc2c1` (stereo not drawn) [Example 32, 4-(quinolin-3-yl)-5,6,7,8,9,10-hexahydro-7,10-epiminocyclohepta[b]indole] are 174% and 5.59.
Regarding `Cc1ccc(-c2cccc3c4c([nH]c23)CC2CCC4N2C)cn1` (stereo not drawn) [Example 33, 11-methyl-4-(6-methylpyridin-3-yl)-5,6,7,8,9,10-hexahydro-7,10-epiminocyclohepta[b]indole], the Emax came to 158% and the negative-log EC50 (pEC50) was 5.29.
Regarding `CN1C2CCC1c1c([nH]c3c(-c4cnc5ccccc5c4)cccc13)C2` (stereo not drawn) [Example 34, 11-methyl-4-(quinolin-3-yl)-5,6,7,8,9,10-hexahydro-7,10-epiminocyclohept[b]indole], the Emax is 189% and the negative logarithm of the EC50 (pEC50) is 5.87.
On the same counts, the results for `c1cncc(-c2cccc3c4c([nH]c23)CC2CCC4N2)c1` (stereo not drawn) [Example 35, 4-(pyridin-3-yl)-5,6,7,8,9,10-hexahydro-7,10-epiminocyclohepta[b]indole] are 87.2% and 4.96.
On the same counts, the results for `COC(=O)N1C2CCC1c1c([nH]c3c(-c4cnc5ccccc5c4)cccc13)C2` (stereo not drawn) [Example 36, methyl 4-(quinolin-3-yl)-5,6,7,8,9,10-hexahydro-7,10-epiminocyclohepta[b]indole-11-carboxylate] are 140% and 5.95.
For the molecule `Cc1ccc(-c2cccc3c4c([nH]c23)CC2CNC4C2)cn1` (stereo not drawn) [Example 37, 7-(6-methylpyridin-3-yl)-1,2,3,4,5,6-hexahydro-1,4-methanoazepino[4,3-b]indole], the Emax worked out at 131% and the pEC50 was 5.13.
The like results for `Cc1ccc(C#Cc2cccc3c4c([nH]c23)CC2CNC4C2)cn1` (stereo not drawn) [Example 38, 7-[(6-methylpyridin-3-yl)ethynyl]-1,2,3,4,5,6-hexahydro-1,4-methanoazepino[4,3-b]indole] were, in that order, 120% and 5.23.
